“And” between values parts separate entries of the source, which are not always exact repeats. Equal entries are not always repeated. Toxic doses and inconclusive results are not listed.

Among the data in PubChem BioAssay AID330 (DTP/NCI, 2004) are T/C values, retold here.

For the assay, the system named is P388 leukemia ip, CD2F1 mice, survival T/C. The assay is described as follows: NCI In Vivo Anticancer Drug Screen. Data for tumor model P388 Leukemia (intraperitoneal) in CD2F1 (CDF1) mice. The conditions noted are these: endpoint: median survival time, higher = longer survival. The method, boiled down: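 Mice carrying the transplanted tumor received test compound or vehicle. Survival was recorded in each group, and the value is the treated-group measurement divided by that of the vehicle-treated control group.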

Setting [1] is: dose: 25.0 mg/kg/injection, schedule: Q01DX009 (ip), vehicle: saline.
[2] abbreviates: dose: 100.0 mg/kg/injection, schedule: Q04DX002 (ip), vehicle: saline with Tween-80.
Where [3] appears, read: dose: 200.0 mg/kg/injection, schedule: Q04DX002 (ip), vehicle: saline with Tween-80.
Where [4] appears, read: dose: 12.5 mg/kg/injection, schedule: Q01DX009 (ip), vehicle: Klucel (hydroxypropylcellulose) (HPC).
The mark [5] stands for this setting: dose: 25.0 mg/kg/injection, schedule: Q01DX009 (ip), vehicle: Klucel (hydroxypropylcellulose) (HPC).
Where [6] appears, read: dose: 50.0 mg/kg/injection, schedule: Q01DX005 (ip), vehicle: saline with Tween-80.
[7] abbreviates: dose: 100.0 mg/kg/injection, schedule: Q01DX005 (ip), vehicle: saline with Tween-80.
Setting [8] is: dose: 50.0 mg/kg/injection, schedule: Q01DX009 (ip), vehicle: Klucel (hydroxypropylcellulose) (HPC).
Setting [9] is: dose: 100.0 mg/kg/injection, schedule: Q01DX009 (ip), vehicle: Klucel (hydroxypropylcellulose) (HPC).
[10] abbreviates: dose: 3.12 mg/kg/injection, schedule: Q01DX009 (ip), vehicle: saline.
[11] abbreviates: dose: 6.25 mg/kg/injection, schedule: Q01DX009 (ip), vehicle: saline.
The mark [12] stands for this setting: dose: 12.5 mg/kg/injection, schedule: Q01DX009 (ip), vehicle: saline.
Setting [13] is: dose: 60.0 mg/kg/injection, schedule: Q01DX005 (ip), vehicle: Klucel (hydroxypropylcellulose) (HPC).
Setting [14] is: dose: 200.0 mg/kg/injection, schedule: Q01DX009 (ip), vehicle: Klucel (hydroxypropylcellulose) (HPC).
Setting [15] is: dose: 15.0 mg/kg/injection, schedule: Q01DX005 (ip), vehicle: saline.
The mark [16] stands for this setting: dose: 30.0 mg/kg/injection, schedule: Q01DX005 (ip), vehicle: saline.
[17] abbreviates: dose: 60.0 mg/kg/injection, schedule: Q01DX005 (ip), vehicle: saline.

In the case of `CC(=O)OC1C(O)C(C)OC(OC2C(OC(=O)C3CCC4C(C3)OC3(CC(OC(=O)/C=C/c5ccccc5)C(C)CO3)C43CO3)OC(C)C(O)C2OC(C)=O)C1O` (centres undefined), the T/C runs as follows: (dose: 0.25 mg/kg/injection, schedule: Q01DX009 (ip), vehicle: saline) 91 % of control; (dose: 0.5 mg/kg/injection, schedule: Q01DX009 (ip), vehicle: saline) 100 % of control; (dose: 1.0 mg/kg/injection, schedule: Q01DX009 (ip), vehicle: saline + alcohol) 113 % of control; (dose: 1.0 mg/kg/injection, schedule: Q01DX009 (ip), vehicle: saline) 110 % of control; (dose: 2.0 mg/kg/injection, schedule: Q01DX009 (ip), vehicle: saline + alcohol) 119 % of control; (dose: 2.0 mg/kg/injection, schedule: Q01DX009 (ip), vehicle: saline) 117 % of control. For the same molecule, the T/C (dose: 4.0 mg/kg/injection, schedule: Q01DX009 (ip), vehicle: saline + alcohol) was 124 % of control.
For the molecule `O=C(O)C1CCCC2C(O)CCC(=O)C12` (centres undefined), the T/C (dose: 100.0 mg/kg/injection, schedule: Q04DX003 (ip), vehicle: saline) was 105 % of control; the T/C (dose: 200.0 mg/kg/injection, schedule: Q04DX003 (ip), vehicle: saline) was 110 % of control; the T/C (dose: 400.0 mg/kg/injection, schedule: Q04DX003 (ip), vehicle: saline) is 105 % of control.
Take `Nc1ccc2cc(S(=O)(=O)O)cc(O)c2c1N=Nc1ccc(F)cc1`: the T/C was 93 % of control under setting [1]; 93 % of control (dose: 50.0 mg/kg/injection, schedule: Q01DX009 (ip), vehicle: saline); 88 % of control and 91 % of control (dose: 100.0 mg/kg/injection, schedule: Q01DX009 (ip), vehicle: saline).
`CCC/C(=N\NC(N)=NC)c1ccc2c(c1)Cc1ccccc1-2`: the T/C is 106 % of control (dose: 50.0 mg/kg/injection, schedule: Q04DX002 (ip), vehicle: saline with Tween-80); 102 % of control under setting [2]; 104 % of control under setting [3].
Consider `COc1ccc([N+](=O)[O-])cc1C[S+](C)C`, for which the T/C is 108 % of control (dose: 6.25 mg/kg/injection, schedule: Q01DX009 (ip), vehicle: Klucel (hydroxypropylcellulose) (HPC)); 107 % of control under setting [4]; 112 % of control under setting [5].
With `Cn1c(N)c2c(=O)n(C)c3c(c2c(C#N)c1=O)CCSc1ccccc1-3`, the T/C was 94 % of control under setting [6] and 93 % of control under setting [7].
In the case of `CCCCCCCCCC1OCN2CCCCC12` (centres undefined), the T/C (dose: 50.0 mg/kg/injection, schedule: Q01DX005 (ip), vehicle: saline) was 105 % of control; the T/C (dose: 100.0 mg/kg/injection, schedule: Q01DX005 (ip), vehicle: saline) is 96 % of control; the T/C (dose: 200.0 mg/kg/injection, schedule: Q01DX005 (ip), vehicle: saline) was 115 % of control.
For the molecule `CCCCCCCCN(C)N=Nc1ccccc1C(=O)O`, the T/C reads like this: under setting [4], 105 % of control; under setting [5], 118 % of control; under setting [8], 115 % of control; under setting [9], 108 % of control.
For `O=S(=O)(c1ccccc1)N1CN2CCN(C2)C1`, the T/C is, setting by setting: (dose: 50.0 mg/kg/injection, schedule: Q01DX009 (ip), vehicle: saline with Tween-80) 123 % of control; (dose: 200.0 mg/kg/injection, schedule: Q01DX009 (ip), vehicle: saline with Tween-80) 150 % of control.
For `COc1ccc2c(c1)CCc1cc(OC)ccc1/[N+]([O-])=[N+]\2[O-]`, the T/C was 93 % of control (dose: 60.0 mg/kg/injection, schedule: Q01DX005 (ip), vehicle: saline with Tween-80); 93 % of control (dose: 120.0 mg/kg/injection, schedule: Q01DX005 (ip), vehicle: saline with Tween-80); 101 % of control (dose: 240.0 mg/kg/injection, schedule: Q01DX005 (ip), vehicle: saline with Tween-80).
Take `COC(=O)C(CC(=O)c1cc2c(cc1Br)OCO2)(Cc1cc(OC)c(OC)c(OC)c1I)C(=O)OC`: the T/C reads like this: under setting [10], 97 % of control; under setting [11], 98 % of control; under setting [12], 97 % of control; under setting [1], 98 % of control; (dose: 100.0 mg/kg/injection, schedule: Q01DX001 (ip), vehicle: saline) 100 % of control; (dose: 200.0 mg/kg/injection, schedule: Q01DX001 (ip), vehicle: saline) 98 % of control. In addition, for the setting “dose: 400.0 mg/kg/injection, schedule: Q01DX001 (ip), vehicle: saline”, the T/C is 100 % of control.
Take `CC1(C)OC(=O)N=C1c1ccc(Cl)cc1`: the T/C was 107 % of control under setting [13] and 101 % of control (dose: 120.0 mg/kg/injection, schedule: Q01DX005 (ip), vehicle: Klucel (hydroxypropylcellulose) (HPC)).
In the case of `FC(F)(F)Sc1c(SC(F)(F)F)c(SC(F)(F)F)n(-n2c(SC(F)(F)F)c(SC(F)(F)F)c(SC(F)(F)F)c2SC(F)(F)F)c1SC(F)(F)F`, the T/C was 104 % of control (dose: 15.0 mg/kg/injection, schedule: Q01DX005 (ip), vehicle: Klucel (hydroxypropylcellulose) (HPC)); 106 % of control (dose: 30.0 mg/kg/injection, schedule: Q01DX005 (ip), vehicle: Klucel (hydroxypropylcellulose) (HPC)); 103 % of control and 97 % of control under setting [13].
Regarding `CC1=NN(C(=O)CC(=O)Nc2ccc(C(=O)O)cc2)C(=O)C1N=Nc1ccccc1C(=O)O` (centres undefined), the T/C under setting [6] is 110 % of control; the T/C under setting [7] was 111 % of control; the T/C (dose: 200.0 mg/kg/injection, schedule: Q01DX005 (ip), vehicle: saline with Tween-80) was 110 % of control.
On to `O=C(Nc1nccs1)Nc1cc(C(F)(F)F)ccc1Cl`, for which the T/C is, setting by setting: under setting [5], 102 % of control; under setting [8], 108 % of control; under setting [9], 97 % of control.
With `CSCCCNC(=O)c1csc(-c2csc(CCNC(C)=O)n2)n1`, the T/C under setting [2] is 98 % of control; the T/C under setting [3] was 95 % of control; the T/C (dose: 400.0 mg/kg/injection, schedule: Q04DX002 (ip), vehicle: saline with Tween-80) is 97 % of control.
`CC1(n2[nH]c(=O)n(-c3ccccc3)c2=O)Cn2c(=O)n(-c3ccccc3)c(=O)n2-c2ccccc21` (centres undefined): the T/C by setting is: (dose: 50.0 mg/kg/injection, schedule: Q01DX005 (ip), vehicle: Klucel (hydroxypropylcellulose) (HPC)) 101 % of control; (dose: 100.0 mg/kg/injection, schedule: Q01DX005 (ip), vehicle: Klucel (hydroxypropylcellulose) (HPC)) 96 % of control; (dose: 200.0 mg/kg/injection, schedule: Q01DX005 (ip), vehicle: Klucel (hydroxypropylcellulose) (HPC)) 108 % of control.
Consider `COc1cc2c(cc1OC)/C(=N/N)CCC2`, for which the T/C is, setting by setting: (dose: 3.13 mg/kg/injection, schedule: Q01DX009 (ip), vehicle: water) 100 % of control; (dose: 6.25 mg/kg/injection, schedule: Q01DX009 (ip), vehicle: water) 100 % of control; (dose: 12.5 mg/kg/injection, schedule: Q01DX009 (ip), vehicle: water) 95 % of control; (dose: 25.0 mg/kg/injection, schedule: Q01DX009 (ip), vehicle: water) 91 % of control; (dose: 50.0 mg/kg/injection, schedule: Q01DX009 (ip), vehicle: water) 91 % of control.
For the molecule `CCCCCCCCCCCCCOCC(=O)O`, the T/C runs as follows: under setting [8], 100 % of control; under setting [9], 95 % of control; under setting [14], 102 % of control.
On the same counts, the results for `Oc1ccccc1C=Nc1ccc2nc(SCc3ccccc3)sc2c1` are 109 % of control, 100 % of control and 89 % of control.
For `C=COS(=O)O`, the T/C under setting [10] is 104 % of control, the T/C under setting [11] is 104 % of control and the T/C under setting [12] was 105 % of control.
Consider `Clc1ccc2ccc3cccnc3c2n1`, for which the T/C is 102 % of control (dose: 7.5 mg/kg/injection, schedule: Q01DX005 (ip), vehicle: saline); 97 % of control under setting [15]; 93 % of control under setting [16]; 102 % of control under setting [17]; 105 % of control (dose: 120.0 mg/kg/injection, schedule: Q01DX005 (ip), vehicle: saline).
On to `CC(=O)C1SCC[S+]1C` (centres undefined), for which the T/C under setting [15] is 102 % of control; the T/C under setting [16] is 102 % of control; the T/C under setting [17] is 99 % of control and 106 % of control and 114 % of control.
